Legend:
[1] = tested on: papillary muscle of the guinea pig; assay: Action potential duration (APD90) in the papillary muscle of the guinea pig, shortened by rilmakalim (HOE 234); type: cell-based; settings: test substance 2 μmol/l, 60 min after its addition; rilmakalim (HOE 234) 1 μg/ml given 30 min before; starting values 165-191, after HOE 234 alone 18-37; 37° C., 1 Hz
Excerpt: Test 1: Action potential duration in the papillary muscle of the guinea pig
ATP deficiency states, such as are observed during ischemia in the cardiac muscle cell, lead to a reduction of the action potential duration. They are regarded as one of the causes of so-called reentry arrhythmias, which can cause sudden heart death. The opening of ATP-sensitive potassium channels by the lowering of ATP (adenosine triphosphate) is regarded as causing this.
A standard microelectrode technique was employed for the measurement of the action potential in the papillary muscle of the guinea pig. For this guinea pigs of both sexes were killed by a blow to the head, the hearts were removed, the papillary muscles were separated out and suspended in an organ bath. The organ bath was irrigated with Ringer's solution (136 mmol/l of NaCl, 3.3 mmol/l of KCl, 2.5 mmol/l of CaCl2, 1.2 mmol/l of KH2PO4, 1.1 mmol/l of MgSO4, 5.0 mmol/l of glucose, 10.0 mmol/l of N-(2-hydroxyethyl)piperazine-N′-(2-ethanesulfonic acid) (HEPES), pH adjusted to 7.4 with NaOH) and aerated with 100% oxygen at a temperature of 37° C. The muscle was stimulated by means of an electrode using squarewave impulses of 1 V and 1 ms duration and a frequency of 1 Hz. The action potential was derived and recorded by means of a glass microelectrode inserted intracellularly, which is filled with 3 mol/l of KCl solution. The substance to be tested was added to the Ringer's solution in a concentration of 2 μmol/l. The action potential was amplified using an amplifier from Hugo Sachs (March-Hugstetten, Germany) and stored and analyzed by means of a computer. The duration of the action potential was determined at a degree of repolarization of 90% (APD90). The action potential reduction was produced by addition of a solution of the potassium channel opener rilmakalim (HOE 234) (W. Linz, E. Klaus, U. Albus, R. H. A. Becker, D. Mania, H. C. Englert, B. A. Schölkens, Arzneimittelforschung/Drug Research, 42 (II) (1992) 1180-1185) (rilmakalim concentration 1 μg/ml). 30 minutes after the administration of rilmakalim, the action potential duration APD90 was recorded. The test substance was then added and the action potential duration APD90, which was extended again, was recorded after a further 60 minutes. The test substances were added to the bath solution as stock solutions in propanediol.

RINm5F cells = assay: Membrane potential on isolated β cells (whole-cell patch clamp, RINm5F cells); type: cell-based; settings: 1 μmol/l test substance, diaxozide 100 μmol/l in bath, 34±1° C., control potential before addition −70 to −78 mV
Excerpt: Test 2: Membrane potential on isolated β cells
The mechanism of action of the hypoglycemic sulfonylureas such as, for example, glibenclamide has been elucidated in broad outline. The target organ of the sulfonylureas is the β cell of the pancreas, where they contribute to the release of the hypoglycemic hormone insulin by influencing the electrical potential of the cell membrane. A hypoglycemic sulfonylurea such as, for example, glibenclamide brings about a depolarization of the cell membrane, which leads to a […] influx of calcium ions and as a consequence of this to insulin release. The extent ΔU of this depolarization of the cell membrane by the test substances was determined on insulin-secreting RINm5F cells, a pancreas tumor cell line. The potency of a compound in this model predicts the extent of the […] potential of this compound.
Cell cultures of RINm5F cells: RINm5F cells were cultured at 37° C. in RPMI 1640 culture medium (Flow), to which 11 mmol/l of glucose, 10% (v/v) fetal calf serum, 2 mmol/l of glutamine and 50 μg/ml of gentamycin were added. The cells were inoculated onto petri dishes every 2 to 3 days and kept in a humidified atmosphere of […] and 5% CO2 at a temperature of 37° C. For the investigations, the cells were isolated by incubation (about 3 min) in a Ca^2+-free medium which contains 0.25% trypsin.
Measuring method: in a Plexiglas chamber, isolated RINm5F cells were applied to an inverted microscope which was equipped with differential interference contrast optics. Under visual control (400× magnification), a fire-polished micropipette having an opening diameter of approximately 1 μm was placed onto the cell with the aid of a micromanipulator. By applying a slight underpressure to the interior of the patch pipette, a high electrical seal between the glass and cell membrane was first produced. Then, by increasing the underpressure, the membrane spot under the measuring pipette was torn off. In this whole-cell configuration, the cell potential was recorded with the aid of a patch clamp amplifier (L/M EPC 7, List, Darmstadt) and the whole-cell current was measured by applying a voltage ramp. […] Stock solutions of the test substances in a concentration of 100 mmol/l in DMSO and corresponding dilutions in an NaCl solution were prepared. DMSO on its own had no effect on the cell potential. In order to stabilize the cell potential, diaxozide (100 μmol/l), an opener for ATP-sensitive K^+ channels, was added to the bath solution in all experiments. All experiments were carried out at 34±1° C.

Row | Structure (SMILES) | melting point [°C] | APD90 +HOE 234, 30 min., then +substance, 60 min. [1] [milliseconds] | ΔU (depolarization of the cell potential) (RINm5F cells) [mV]
1 | CCNC(=O)NS(=O)(=O)c1cc(CCNC(=O)c2cc(Cl)ccc2OC)ccc1-c1ccccc1 [Example 4, 5-(2-(5-Chloro-2-methoxybenzamido)ethyl)-N-(ethylaminocarbonyl)-2-phenylbenzenesulfonamide] |  | 81 | 
2 | C=CCc1ccc(CCNC(=O)c2cc(Cl)ccc2OC)cc1S(=O)(=O)NC(=O)NC [Example 18, 2-Allyl-5-(2-(5-chloro-2-methoxybenzamido)ethyl)-N-(methylaminocarbonyl)benzenesulfonamide] | 124 to 126 |  | 
3 | CNC(=O)NS(=O)(=O)c1cc(CCNC(=O)c2cc(Cl)ccc2OC)ccc1-c1ccco1 [Example 15, 5-(2-(5-Chloro-2-methoxybenzamido)ethyl)-2-(2-furyl)-N-(methylaminocarbonyl)benzenesulfonamide] |  | 83 | 
4 | CNC(=S)NS(=O)(=O)c1cc(CCNC(=O)c2cc(Cl)ccc2OC)ccc1-c1ccc(F)cc1 [Example 7, 5-(2-(5-Chloro-2-methoxybenzamido)ethyl)-2-(4-fluorophenyl)-N-(methyl-aminothiocarbonyl)benzenesulfonamide] |  | 71 | 
5 | CNC(=S)NS(=O)(=O)c1cc(CCNC(=O)c2cc(Cl)ccc2OC)ccc1-c1ccco1 [Example 14, 5-(2-(5-Chloro-2-methoxybenzamido)ethyl)-2-(2-furyl)-N-(methylaminothiocarbonyl)benzenesulfonamide] | 145 to 146 |  | 7
6 | CNC(=O)NS(=O)(=O)c1cc(CCNC(=O)c2cc(Cl)ccc2OC)ccc1-c1cccs1 [Example 13, 5-(2-(5-Chloro-2-methoxybenzamido)ethyl)-N-(methylaminocarbonyl)-2-(2-thienyl)benzenesulfonamide] |  | 72 | 
7 | CNC(=S)NS(=O)(=O)c1cc(CCNC(=O)c2cc(Cl)ccc2OC)ccc1-c1ccccc1 [Example 1, 5-(2-(5-Chloro-2-methoxybenzamido)ethyl)-N-(methylaminothiocarbonyl)-2-phenylbenzenesulfonamide] |  | 134 | 6
8 | CNC(=S)NS(=O)(=O)c1cc(CCNC(=O)c2cc(Cl)ccc2OC)ccc1-c1ccccn1 [Example 16, 5-(2-(5-Chloro-2-methoxybenzamido)ethyl)-N-(methylaminothiocarbonyl)-2-(2-pyridyl)benzenesulfonamide] |  | 153 | 
9 | CCNC(=S)NS(=O)(=O)c1cc(CCNC(=O)c2cc(Cl)ccc2OC)ccc1-c1ccc(SC)cc1 [Example 10, 5-(2-(5-Chloro-2-methoxybenzamido)ethyl)-N-(ethylaminothiocarbonyl)-2-(4-methylthiophenyl)benzenesulfonamide] | 178 to 179 |  | 
10 | COc1ccc(Cl)cc1C(=O)NCCc1ccc(S(=O)(=O)NC(=O)NC2CCCCC2)cc1 [Glibenclamide, reference compound] |  |  | 47
11 | CNC(=S)NS(=O)(=O)c1cc(CCNC(=O)c2cc(Cl)ccc2OC)ccc1Sc1ccccc1 [Example 20, 5-(2-(5-Chloro-2-methoxybenzamido)ethyl)-N-(methylaminothiocarbonyl)-2-(phenylsulfanyl)benzenesulfonamide] |  | 139 | 

The next lines start with results.

Row | melting point [°C] | Structure (SMILES) | APD90 +HOE 234, 30 min., then +substance, 60 min. [1] [milliseconds] | ΔU (depolarization of the cell potential) (RINm5F cells) [mV]
12 | 185 to 188 | CNC(=S)NS(=O)(=O)c1cc(CCNC(=O)c2cc(Cl)ccc2OC)ccc1-c1ccc(OC)cc1 [Example 9, 5-(2-(5-Chloro-2-methoxybenzamido)ethyl)-2-(4-methoxyphenyl)-N-(methylaminothiocarbonyl)benzenesulfonamide] |  | 15
13 | 189 to 191 | CNC(=S)NS(=O)(=O)c1cc(CCNC(=O)c2cc(Cl)ccc2OC)ccc1-c1cccs1 [Example 12, 5-(2-(5-Chloro-2-methoxybenzamido)ethyl)-N-(methylaminothiocarbonyl)-2-(2-thienyl)benzenesulfonamide] |  | 5
14 | 168 to 170 | CCNC(=S)NS(=O)(=O)c1cc(CCNC(=O)c2cc(Cl)ccc2OC)ccc1-c1ccccc1 [Example 3, 5-(2-(5-Chloro-2-methoxybenzamido)ethyl)-N-(ethylaminothiocarbonyl)-2-phenylbenzenesulfonamide] |  | 
15 | 160 | CNC(=O)NS(=O)(=O)c1cc(CCNC(=O)c2cc(Cl)ccc2OC)ccc1-c1ccccn1 [Example 17, 5-(2-(5-Chloro-2-methoxybenzamido)ethyl)-N-(methylaminocarbonyl)-2-(2-pyridyl)benzenesulfonamide] |  | 
16 | 189 to 192 | CNC(=S)NS(=O)(=O)c1cc(CCNC(=O)c2cc(Cl)ccc2OC)ccc1-c1ccc(Cl)cc1 [Example 8, 5-(2-(5-Chloro-2-methoxybenzamido)ethyl)-2-(4-chlorophenyl)-N-(methyl-aminothiocarbonyl)benzenesulfonamide] |  | 
17 | 224 to 225 | C#Cc1ccc(CCNC(=O)c2cc(Cl)ccc2OC)cc1S(=O)(=O)NC(=S)NC [Example 19, 5-(2-(5-Chloro-2-methoxybenzamido)ethyl)-2-ethynyl-N-(methylaminothiocarbonyl)benzenesulfonamide] |  | 

— patent publication US6410573B1, “2,5-substituted benzolsulfonylureas and thioureas methods for the production thereof use thereof and pharmaceutical preparations containing the same” (Aventis Pharma Deutschland GmbH, priority 1998, dated 2002)
